Assay results: patent US20210045385A1, “PYRIDAZINONE-SUBSTITUTED KETOXIMES AS HERBICIDES” (FMC Corporation, priority 2018, published 2021)

Key:
Type in all cases: in vivo
[1] = tested on: pigweed (Amaranthus retroflexus); test: Test C preemergence, visual plant response rating
Outline: (§1)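 Visual injury on a 0 (no effect) to 100 (complete control) scale versus untreated controls, scored approximately 10 d after treatment under greenhouse conditions. Treatments used surfactant-containing non-phytotoxic solvent formulations, sprayed onto loam–sand soil preemergence or onto one- to two-leaf plants 2–10 cm tall postemergence.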

[2] = tested on: ragweed (common ragweed, Ambrosia artemisiifolia); test: Test C preemergence, visual plant response rating
Outline: as §1

kochia (Bassia scoparia) [3] = test: Test C preemergence, visual plant response rating
Outline: as §1

[4] = tested on: Italian ryegrass (Lolium mutiflorum); test: Test C preemergence, visual plant response rating
Outline: as §1

[5] = tested on: barnyardgrass (Echinochloa crus-galli); test: Test C preemergence, visual plant response rating
Outline: as §1

[6] = tested on: foxtail, giant (giant foxtail, Setaria faberi); test: Test C preemergence, visual plant response rating
Outline: as §1

[7] = tested on: sedge umbrella (small-flower umbrella sedge, Cyperus difformis); test: Test D flooded paddy test, visual plant response rating; details: 250 g ai/ha, scale 0 to 100 (0 no effect, 100 complete control), 13 to 15 d
Outline: (§2)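 Rating is visual, on a 0 (no effect) to 100 (complete control) scale versus controls, taken 13 to 15 d after treatment in a greenhouse. Treatment went into paddy water kept 3 cm above the soil surface, with plants at the 2-leaf stage.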

rice (Oryza sativa) = test: as above; details: 250 g ai/ha, scale 0 to 100 (0 no effect, 100 complete control), 13 to 15 d
Outline: as §2

[8] = tested on: duck salad (Heteranthera limosa); test: as above; details: 250 g ai/ha, scale 0 to 100 (0 no effect, 100 complete control), 13 to 15 d
Outline: as §2

[9] = tested on: barnyardgrass (Echinochloa crus-galli); test: as above; details: 250 g ai/ha, scale 0 to 100 (0 no effect, 100 complete control), 13 to 15 d
Outline: as §2

[10] = tested on: wheat (Triticum aestivum); test: Test C postemergence, visual plant response rating
Outline: as §1

[11] = tested on: pigweed (Amaranthus retroflexus); test: Test C postemergence, visual plant response rating
Outline: as §1

[12] = tested on: blackgrass (Alopecurus myosuroides); test: Test C postemergence, visual plant response rating
Outline: as §1

[13] = tested on: ragweed (common ragweed, Ambrosia artemisiifolia); test: Test C postemergence, visual plant response rating
Outline: as §1

kochia (Bassia scoparia) [14] = test: Test C postemergence, visual plant response rating
Outline: as §1

corn (Zea mays) = test: Test C postemergence, visual plant response rating
Outline: as §1

[15] = tested on: Italian ryegrass (Lolium mutiflorum); test: Test C postemergence, visual plant response rating
Outline: as §1

[16] = tested on: barnyardgrass (Echinochloa crus-galli); test: Test C postemergence, visual plant response rating
Outline: as §1

[17] = tested on: galium (catchweed bedstraw, Galium aparine); test: Test C postemergence, visual plant response rating
Outline: as §1

[18] = tested on: foxtail, giant (giant foxtail, Setaria faberi); test: Test C postemergence, visual plant response rating
Outline: as §1

[19] = Test C, 31 g ai/ha, 0 is no effect, 100 is complete control
[20] = Test C, 125 g ai/ha, 0 is no effect, 100 is complete control
[21] = Test C, postemergence, 125 g ai/ha
[22] = Test C, postemergence, 31 g ai/ha

Structure (SMILES) | Pigweed plant response rating (0 to 100 scale) [1, 19] | Ragweed plant response rating (0 to 100 scale) [2, 19] | Kochia plant response rating (0 to 100 scale) (kochia (Bassia scoparia) [3]; [19]) | Ryegrass, Italian plant response rating (0 to 100 scale) [4, 19] | Barnyardgrass plant response rating (0 to 100 scale) [5, 19] | Foxtail, Giant plant response rating (0 to 100 scale) [6, 19] | Plant response rating, Sedge, Umbrella (Flood) [7] | Plant response rating, Rice (Flood) (rice (Oryza sativa)) | Plant response rating, Ducksalad (Flood) [8] | Plant response rating, Barnyardgrass (Flood) [9] | Wheat plant response rating (0 to 100 scale) ([10]; Postemergence, 31 g ai/ha) | Wheat plant response rating (0 to 100 scale) [10, 21] | Pigweed plant response rating (0 to 100 scale) ([11]; Postemergence, 31 g ai/ha) | Pigweed plant response rating (0 to 100 scale) [11, 21] | Blackgrass plant response rating (0 to 100 scale) [12, 21] | Ragweed plant response rating (0 to 100 scale) ([13]; Postemergence, 31 g ai/ha) | Ragweed plant response rating (0 to 100 scale) [13, 21] | Kochia plant response rating (0 to 100 scale) (kochia (Bassia scoparia) [14]; [21]) | Corn plant response rating (0 to 100 scale) (corn (Zea mays); [21]) | Ryegrass, Italian plant response rating (0 to 100 scale) ([15]; Postemergence, 31 g ai/ha) | other results
CCO/N=C(/c1c(O)c(Cl)nn(C)c1=O)c1ccc(F)c2ccccc12 [Compound 211] | 70 | 40 | 0 | 30 | 50 | 70 | 0 | 0 | 0 | 0 | 0 | 40 | 70 | 100 | 30 | 80 | 80 | 90 | 20 | 30 | Pigweed plant response rating (0 to 100 scale) [1, 20]: 90; Ragweed plant response rating (0 to 100 scale) [2, 20]: 100; Kochia plant response rating (0 to 100 scale) (kochia (Bassia scoparia) [3]; [20]): 60; Ryegrass, Italian plant response rating (0 to 100 scale) [4, 20]: 80; Barnyardgrass plant response rating (0 to 100 scale) [5, 20]: 90; Foxtail, Giant plant response rating (0 to 100 scale) [6, 20]: 90; Blackgrass plant response rating (0 to 100 scale) ([12]; Postemergence, 31 g ai/ha): 30; Kochia plant response rating (0 to 100 scale) (kochia (Bassia scoparia) [14]; Postemergence, 31 g ai/ha): 50; Corn plant response rating (0 to 100 scale) (corn (Zea mays); Postemergence, 31 g ai/ha): 30; Ryegrass, Italian plant response rating (0 to 100 scale) [15, 21]: 80; Barnyardgrass plant response rating (0 to 100 scale) ([16]; Postemergence, 31 g ai/ha): 30; Barnyardgrass plant response rating (0 to 100 scale) [16, 21]: 70; Galium plant response rating (0 to 100 scale) ([17]; Postemergence, 31 g ai/ha): 100; Galium plant response rating (0 to 100 scale) [17, 21]: 100; Foxtail, Giant plant response rating (0 to 100 scale) ([18]; Postemergence, 31 g ai/ha): 60; Foxtail, Giant plant response rating (0 to 100 scale) [18, 21]: 90
C#CCO/N=C(\c1cc(C)cc(Cl)c1)c1c(O)c(C)nn(C)c1=O [Compound 155] | 40 | 70 | 0 | 40 | 70 | 80 | 45 | 0 | 30 | 15 | 0 | 60 | 50 | 100 | 90 | 90 | 100 | 80 | 20 | 90 | Pigweed plant response rating (0 to 100 scale) ([1]; 125 g ai/ha): 100; Ragweed plant response rating (0 to 100 scale) ([2]; 125 g ai/ha): 90; Kochia plant response rating (0 to 100 scale) (kochia (Bassia scoparia) [3]; 125 g ai/ha): 90; Ryegrass, Italian plant response rating (0 to 100 scale) ([4]; 125 g ai/ha): 100; Barnyardgrass plant response rating (0 to 100 scale) ([5]; 125 g ai/ha): 100; Foxtail, Giant plant response rating (0 to 100 scale) ([6]; 125 g ai/ha): 90; Blackgrass plant response rating (0 to 100 scale) [12, 22]: 30; Kochia plant response rating (0 to 100 scale) (kochia (Bassia scoparia) [14]; [22]): 70; Corn plant response rating (0 to 100 scale) (corn (Zea mays); [22]): 0; Ryegrass, Italian plant response rating (0 to 100 scale) [15, 21]: 100; Barnyardgrass plant response rating (0 to 100 scale) [16, 22]: 50; Barnyardgrass plant response rating (0 to 100 scale) [16, 21]: 80; Galium plant response rating (0 to 100 scale) [17, 22]: 90; Galium plant response rating (0 to 100 scale) [17, 21]: 90; Foxtail, Giant plant response rating (0 to 100 scale) [18, 22]: 80; Foxtail, Giant plant response rating (0 to 100 scale) [18, 21]: 90
